Source: US7060790B1, “Peptides and nucleic acids derived from Eisenia foetida and the use thereof” (Vlaams Interuniversitair Instituut voor Biotechnologie VZW, priority 1997, dated 2006)

What was measured:
[1] = test system: T. cruzi; assay: Trypanolytic activity on T. cruzi; format: cell-based; conditions: trypomastigote versus epimastigote forms
Procedure: Purified parasites were resuspended at 4×10^6/ml PSG (PBS, consisting of 2.13 g NaCl, 8.45 g Na2HPO4 and 0.43 g NaH2PO4 per liter, supplemented with 1% glucose). […] of suspension were mixed with […] of different concentrations of CF, CCF-1 or TNF-α in 96-well culture plate. Quantification of the trypanolysis was based on the determination of parasite viability using Ethidium homodimer (EthD-1, Molecular Probes). EthD-1 is excluded by intact plasma membrane of live parasites. However, it enters the cells with damaged membrane and undergoes enhancement of fluorescence on binding nucleic acids, thereby producing a bright red fluorescence in dead cells. Briefly, after 4.5 hrs incubation at 30° C., […] of […] EthD-1 was added to the wells. The mean fluorescence intensity of triplicate cultures (±SD) was recorded 30 min later in a cytofluorimeter (Cytofluor II, PerSeptive Biosystems) using excitation/emission filters at 530±25/645±40 nm. A set of control was included in each experiments: (A) a parasite-free control to account for possible background fluorescence (B) a control of 100% lysis, prepared by treating the parasites with […] 2% saponin for about 10 min before adding EthD-1 (C) a control in which the trypanolytic component was replaced by PSG was considered as 0% lysis. […] In some assays parasite lysis was assessed by light microscopy counting the remaining parasites. […]

[2] = test system: Trypanosoma brucei AnTat 1.1E; assay: Trypanolytic assay on T. brucei; format: cell-based
Procedure: Pleiomorphic and monomorphic Trypanosoma brucei AnTat 1.1E clone were provided by Dr N. Van Meirvenne (Institute of Tropical Medicine, Antwerp, Belgium).
(§1) Purified parasites were resuspended at 4×10^6/ml PSG (PBS, consisting of 2.13 g NaCl, 8.45 g Na2HPO4 and 0.43 g NaH2PO4 per liter, supplemented with 1% glucose). […] of suspension were mixed with […] of different concentrations of CF, CCF-1 or TNF-α in 96-well culture plate. Quantification of the trypanolysis was based on the determination of parasite viability using Ethidium homodimer (EthD-1, Molecular Probes). EthD-1 is excluded by intact plasma membrane of live parasites. However, it enters the cells with damaged membrane and undergoes enhancement of fluorescence on binding nucleic acids, thereby producing a bright red fluorescence in dead cells. Briefly, after 4.5 hrs incubation at 30° C., […] of […] EthD-1 was added to the wells. The mean fluorescence intensity of triplicate cultures (±SD) was recorded 30 min later in a cytofluorimeter (Cytofluor II, PerSeptive Biosystems) using excitation/emission filters at 530±25/645±40 nm. A set of control was included in each experiments: (A) a parasite-free control to account for possible background fluorescence (B) a control of 100% lysis, prepared by treating the parasites with […] 2% saponin for about 10 min before adding EthD-1 (C) a control in which the trypanolytic component was replaced by PSG was considered as 0% lysis. (B) and (C) were used to build a standard curve and the % lysis in test samples was estimated by linear regression. In some assays parasite lysis was assessed by light microscopy counting the remaining parasites. Background lysis, i.e. lysis of trypanosomes within 5 hrs incubation at 30° C. in absence of lytic molecules, never exceeded 5–10%.

[3] = Binding to chitobiose
[4] = target: T1, TNF-α (Mus musculus, UniProt P06804); assay: Inhibition of TNF-α mediated trypanolysis (T. brucei) by antibodies and carbohydrates; format: cell-based; conditions: inhibitor 10 μg/ml, TNF-α 1.000 U/ml
T1 sequence (P06804 80-235 limits assumed): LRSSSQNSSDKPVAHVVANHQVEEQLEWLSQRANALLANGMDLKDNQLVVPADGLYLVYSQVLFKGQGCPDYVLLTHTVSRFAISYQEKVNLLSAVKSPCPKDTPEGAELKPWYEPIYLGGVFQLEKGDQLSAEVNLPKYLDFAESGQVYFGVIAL
Procedure: as §1
(§2) For inhibition experiments CCF-1 or TNF-α were pre-incubated 1 hr at 30° C. with 10 […] of antibodies (anti-CCF1, anti-TIP or irrelevant mAb) or sugars (chitobiose, cellobiose, Sigma). All experiments were repeated at least 3 times.

[5] = test system: CCF-1; assay: Inhibition of the cytolytic activity of CCF-1 (L929) by antibodies and carbohydrates; format: cell-based, Eisenia foetida
Procedure: To test whether the cytolytic activity of CCF-1 is mediated by a similar or a different domain as that one utilized for the trypanolytic activity, CCF-1 was preincubated with N,N′-diacetylchitobiose or anti-TNF/TIP antibodies and tested in the L-929 lysis assay (21). […] This is in sharp contrast to the cytolytic activity of TNF-α that is not influenced by anti-TNF/TIP antibodies nor by N,N′-diacetylchitobiose.

[6] = test system: CCF-1; assay: Inhibition of CCF-1 mediated trypanolysis (T. brucei) by antibodies and carbohydrates; format: cell-based, Eisenia foetida; conditions: for CCF-1 mediated trypanolysis % Inhibition / CCF-1 mediated trypanolysis % Lysis: inhibitor 10 μg/ml, CCF-1 4 μg/ml
Procedure: as §1, §2

[7] = test system: trypanolytic activity (T. cruzi) of CF; assay: Inhibition of the trypanolytic activity (T. cruzi) of CF by antibodies and carbohydrates; format: cell-based
Procedure: as §1, §2

[8] = test system: anti-CCF-1 mAb 12C9; assay: Dot spot assay of tryptic peptides with anti-CCF-1 mAb; format: binding
Procedure: The separated peptides obtained from HPLC purification of the tryptic digest of CCF-1 were analyzed for reactivity with the anti-CCF-1 mAb via a dot spot assay. […] The obtained sequence is shown in SEQ ID NO:1.

[9] = Experiment 1, inhibitor 10 μg/ml, CCF-1 4 μg/ml, L929
[10] = inhibitor 10 μg/ml, CF final dilution 1:4.000

TNF-α
T. cruzi forms on which trypanolytic activity was recorded [1]: only be recorded on the trypomastigote but not the epimastigote forms
TNF-α mediated trypanolysis % Lysis ([2]; TNF-α 1.000 U/ml, no inhibitor): 41%
binding to chitobiose / binding capacity towards N,N′-diacetylchitobiose [3]: bind to immobilized chitobiose

CC(=O)N[C@H]1[C@H](O[C@H]2[C@H](O)[C@@H](NC(C)=O)C(O)O[C@@H]2CO)O[C@H](CO)[C@@H](O)[C@@H]1O (stereo partly shown) [N,N′-diacetylchitobiose]
TNF-α mediated trypanolysis % Inhibition [4]: 100%
TNF-α mediated trypanolysis % Lysis [4]: 0%
inhibition of the interaction of CCF-1 with L-929 cells (in words) ([5]; CCF-1 preincubated with inhibitor): completely inhibited
CCF-1 mediated cytolysis % Inhibition [5, 9]: 100%
CCF-1 mediated cytolysis % Lysis [5, 9]: 0%
inhibition of the trypanolytic activity of CCF-1 (in words) [6]: found to inhibit also the trypanolytic activity of CCF-1
CCF-1 mediated trypanolysis % Inhibition [6]: 73%
CCF-1 mediated trypanolysis % Lysis [6]: 3%
inhibition of the trypanolytic activity of rCCF-1 (in words) ([6]; rCCF-1, FIG. 3A, 3B): inhibits potently
inhibition of the T. cruzi lytic activity of CF (in words) [7]: substantially decreased
CF-1 mediated trypanolysis % Inhibition [7, 10]: 70%
CF-1 mediated trypanolysis % Lysis [7, 10]: 19%

O=C[C@H](O)[C@@H](O)[C@H](O[C@@H]1O[C@H](CO)[C@@H](O)[C@H](O)[C@H]1O)[C@H](O)CO [Cellobiose]
TNF-α mediated trypanolysis % Lysis [4]: 41%
inhibition at 10 µg/mL [4]: 0%
inhibition of the trypanolytic activity of CCF-1 (in words) [6]: does not influence the trypanolytic activity of CCF-1
CCF-1 mediated trypanolysis % Inhibition [6]: 0%
CCF-1 mediated trypanolysis % Lysis [6]: 49%
inhibition at 10 µg/mL ([7]; Trypanosoma cruzi, inhibitor 10 μg/ml, CF final dilution 1:4.000, read-out: CF-1 mediated trypanolysis % Inhibition): 0%
CF-1 mediated trypanolysis % Lysis [7, 10]: 67%

NH2-SGEIDIIETIGNR-COOH (chain 1 H-SGEIDIIETIGNR-OH; chain 2 H-SGEIDIIETIGNR-OH; listed as Eisenia foetida) [CCF-1/TIP]
reactivity with the anti-CCF-1 mAb 12C9 in dot spot assay [8]: weakly positive
trypanolytic activity on T. brucei (in words) [2]: trypanolytic in a time- and dose-dependent way
trypanolytic activity compared with the TNF/TIP peptide ([2]; FIG. 1): reproducibly more trypanolytic than the TNF/TIP peptide
